Results from patent US8383619B2, “Pharmaceutical compounds” (Astex Therapeutics Limited, priority 2008, dated 2013).

Experiments:
Assay in all cases: Anti-proliferative assay (Oncodesign)
Format in all cases: cell-based
[1] = system: A-498; conditions: Homo sapiens, A498; A-498 (KIDNEY); read-out: IC50 (Concentration of test compound)
Experimental: (§1) The anti-proliferative activities of the parent compounds of the pro-drugs of the invention may be determined by measuring the ability of the compounds to inhibition of cell growth in a number of cell lines such as the human colon cancer cell line HCT116. Inhibition of cell growth is measured using the Alamar Blue assay (Nociari, M. M, Shalev, A., Benias, P., Russo, C. Journal of Immunological Methods 1998, 213, 157-167). The method is based on the ability of viable cells to reduce resazurin to its fluorescent product resorufin. For each proliferation assay cells are plated onto 96 well plates and allowed to recover for 16 hours prior to the addition of inhibitor compounds for a further 72 hours. At the end of the incubation period 10% (v/v) Alamar Blue is added and incubated for a further 6 hours prior to determination of fluorescent product at […]. In the case of the non-proliferating cell assay cells are maintained at confluence for 96 hour prior to the addition of inhibitor compounds for a further 72 hours. The number of viable cells is determined by Alamar Blue assay as before. Cell lines may be obtained from the ECACC (European Collection of cell Cultures).
(§2) The parent compound of the pro-drugs of Examples 1 to 25 i.e. (2,4-dihydroxy-5-isopropyl-phenyl)-[5-(4-methyl-piperazin-1-ylmethyl)-1,3-dihydro-isoindol-2-yl]-methanone, in the form of its L-lactate salt, was tested in anti-proliferative assays against one hundred cell lines by Oncodesign (Dijon, France). The IC50 values against each cell line are set out in the table below and the figures in the table refer to nanomolar concentrations. The compounds were tested up to a concentration of 10,000 nanomolar.

[2] = system: KB; conditions: Homo sapiens; KB (HEAD AND NECK); read-out: IC50 (Concentration of test compound)
Experimental: as §1, §2

[3] = system: A-375-SM; conditions: Homo sapiens, A375-SM; A-375-SM (SKIN); read-out: IC50 (Concentration of test compound)
Experimental: as §1, §2

[4] = system: Hs 746T; conditions: Homo sapiens, Hs746T; Hs 746T (STOMACH); read-out: IC50 (Concentration of test compound)
Experimental: as §1, §2

[5] = system: ARH-77; conditions: Homo sapiens; ARH-77 (BLOOD); read-out: IC50 (Concentration of test compound)
Experimental: as §1, §2

[6] = system: BB49-HNSCC; conditions: BB49-HNSCC (HEAD AND NECK); read-out: IC50 (Concentration of test compound)
Experimental: as §1, §2

[7] = system: NCI-H69; conditions: Homo sapiens; NCI-H69 (LUNG); read-out: IC50 (Concentration of test compound)
Experimental: as §1, §2

[8] = system: Hep 3B2.1-7; conditions: Hep 3B2.1-7 (LIVER); read-out: IC50 (Concentration of test compound)
Experimental: as §1, §2

[9] = system: KATO III; conditions: Homo sapiens; KATO III (STOMACH); read-out: IC50 (Concentration of test compound)
Experimental: as §1, §2

[10] = system: HL-60; conditions: Homo sapiens; HL-60 (BLOOD); read-out: IC50 (Concentration of test compound)
Experimental: as §1, §2

[11] = system: Calu-3; conditions: Homo sapiens; Calu-3 (LUNG); read-out: IC50 (Concentration of test compound)
Experimental: as §1, §2

[12] = system: CCRF-CEM/VLB; conditions: Homo sapiens; CCRF-CEM/VLB (BLOOD); read-out: IC50 (Concentration of test compound)
Experimental: as §1, §2

[13] = system: Calu-6; conditions: Homo sapiens; Calu-6 (LUNG); read-out: IC50 (Concentration of test compound)
Experimental: as §1, §2

[14] = system: LB12-SCLC/OC2; conditions: LB12-SCLC/OC2 (LUNG); read-out: IC50 (Concentration of test compound)
Experimental: as §1, §2

[15] = system: MDA-MB-435S; conditions: Homo sapiens; MDA-MB-435S (BREAST); read-out: IC50 (Concentration of test compound)
Experimental: as §1, §2

[16] = system: A-431; conditions: Homo sapiens; A-431 (SKIN); read-out: IC50 (Concentration of test compound)
Experimental: as §1, §2

[17] = system: BB30-HNSCC; conditions: BB30-HNSCC (HEAD AND NECK); read-out: IC50 (Concentration of test compound)
Experimental: as §1, §2

[18] = system: MCF-7/ras; conditions: Homo sapiens, MCF7; MCF-7/ras (BREAST); read-out: IC50 (Concentration of test compound)
Experimental: as §1, §2

[19] = system: ZR-75-1; conditions: Homo sapiens; ZR-75-1 (BREAST); read-out: IC50 (Concentration of test compound)
Experimental: as §1, §2

[20] = system: LB831-BLC; conditions: LB831-BLC (URINARY BLADDER); read-out: IC50 (Concentration of test compound)
Experimental: as §1, §2

[21] = system: SW-872; conditions: Homo sapiens, SW872; SW-872 (CONNECTIVE TISSUE); read-out: IC50 (Concentration of test compound)
Experimental: as §1, §2

[22] = system: LB13-SCLC/OC3; conditions: LB13-SCLC/OC3 (LUNG); read-out: IC50 (Concentration of test compound)
Experimental: as §1, §2

[23] = system: NIH: OVCAR-3/CPT20; conditions: Homo sapiens; NIH: OVCAR-3/CPT20 (OVARY); read-out: IC50 (Concentration of test compound)
Experimental: as §1, §2

[24] = system: IGROV-1/CDDP; conditions: Homo sapiens; IGROV-1/CDDP (OVARY); read-out: IC50 (Concentration of test compound)
Experimental: as §1, §2

IC50 [2]: 48 nM
IC50 [3]: 340 nM
IC50 [7]: 162 nM
IC50 [10]: 389 nM
IC50 [11]: > 10000 nM
IC50 [12]: > 10000 nM
IC50 [13]: 32 nM
IC50 [15]: 26 nM
IC50 [16]: 3800 nM
IC50 [18]: 166 nM
IC50 [21]: > 10000 nM
IC50 [23]: > 10000 nM
SMILES: CC(C)c1cc(C(=O)N2Cc3ccc(CN4CCN(C)CC4)cc3C2)c(O)cc1O [(2,4-dihydroxy-5-isopropyl-phenyl)-[5-(4-methyl-piperazin-1-ylmethyl)-1,3-dihydro-isoindol-2-yl]-methanone]
IC50 [1]: 267 nM
IC50 [4]: 34 nM
IC50 [5]: > 10000 nM
IC50 [6]: 146 nM
IC50 [8]: 95 nM
IC50 [9]: 162 nM
IC50 [14]: 52 nM
IC50 [17]: 273 nM
IC50 [19]: 131 nM
IC50 [20]: 149 nM
IC50 [22]: 21 nM
IC50 [24]: 147 nM
